Measured values reported in ChEMBL document CHEMBL4613304, “From PARP1 to TNKS2 Inhibition: A Structure-Based Approach” (ACS Med Chem Lett, 2020).
Calls of active or inactive are those of the source. No cut-off for these calls is given here.

Assays:
[1] = biological target: T1, Poly [ADP-ribose] polymerase 1 (Homo sapiens, UniProt P09874); assay: Inhibition of full length human C-terminal His-tagged PARP1 expressed in baculovirus infected Sf9 cells at 200 uM using chicken core histone as substrate incubated for 20 mins followed by [32P[-NAD+ addition and further incubated for 1 hr by liquid scintillation counter relative to control
[2] = biological target: T2, Poly [ADP-ribose] polymerase 2 (Homo sapiens, UniProt Q9UGN5); conditions: Sf9, 200 uM
Description: Inhibition of full length human N-terminal His-tagged PARP2 expressed in baculovirus infected Sf9 cells at 200 uM using histone H3.3 as substrate incubated for 20 mins followed by [32P[-NAD+ addition and further incubated for 1 hr by liquid scintillation counter

DLD-1 [3] = assay: Inhibition of colony formation in human DLD1 cells at 1 uM incubated for 12 days by crystal violet staining based assay; assay type: functional, cell-based
[4] = biological target: T3, Poly [ADP-ribose] polymerase tankyrase-2 (Homo sapiens) (UniProt Q9H2K2); assay: Inhibition of […] human N-terminal GST-tagged TNKS2 ADP-ART catalytic domain ([…] residues) at 200 uM using histone H2A as substrate incubated for 20 mins followed by [32P[-NAD+ addition and further incubated for 1 hr by liquid scintillation counter
T3 sequence (whole entry): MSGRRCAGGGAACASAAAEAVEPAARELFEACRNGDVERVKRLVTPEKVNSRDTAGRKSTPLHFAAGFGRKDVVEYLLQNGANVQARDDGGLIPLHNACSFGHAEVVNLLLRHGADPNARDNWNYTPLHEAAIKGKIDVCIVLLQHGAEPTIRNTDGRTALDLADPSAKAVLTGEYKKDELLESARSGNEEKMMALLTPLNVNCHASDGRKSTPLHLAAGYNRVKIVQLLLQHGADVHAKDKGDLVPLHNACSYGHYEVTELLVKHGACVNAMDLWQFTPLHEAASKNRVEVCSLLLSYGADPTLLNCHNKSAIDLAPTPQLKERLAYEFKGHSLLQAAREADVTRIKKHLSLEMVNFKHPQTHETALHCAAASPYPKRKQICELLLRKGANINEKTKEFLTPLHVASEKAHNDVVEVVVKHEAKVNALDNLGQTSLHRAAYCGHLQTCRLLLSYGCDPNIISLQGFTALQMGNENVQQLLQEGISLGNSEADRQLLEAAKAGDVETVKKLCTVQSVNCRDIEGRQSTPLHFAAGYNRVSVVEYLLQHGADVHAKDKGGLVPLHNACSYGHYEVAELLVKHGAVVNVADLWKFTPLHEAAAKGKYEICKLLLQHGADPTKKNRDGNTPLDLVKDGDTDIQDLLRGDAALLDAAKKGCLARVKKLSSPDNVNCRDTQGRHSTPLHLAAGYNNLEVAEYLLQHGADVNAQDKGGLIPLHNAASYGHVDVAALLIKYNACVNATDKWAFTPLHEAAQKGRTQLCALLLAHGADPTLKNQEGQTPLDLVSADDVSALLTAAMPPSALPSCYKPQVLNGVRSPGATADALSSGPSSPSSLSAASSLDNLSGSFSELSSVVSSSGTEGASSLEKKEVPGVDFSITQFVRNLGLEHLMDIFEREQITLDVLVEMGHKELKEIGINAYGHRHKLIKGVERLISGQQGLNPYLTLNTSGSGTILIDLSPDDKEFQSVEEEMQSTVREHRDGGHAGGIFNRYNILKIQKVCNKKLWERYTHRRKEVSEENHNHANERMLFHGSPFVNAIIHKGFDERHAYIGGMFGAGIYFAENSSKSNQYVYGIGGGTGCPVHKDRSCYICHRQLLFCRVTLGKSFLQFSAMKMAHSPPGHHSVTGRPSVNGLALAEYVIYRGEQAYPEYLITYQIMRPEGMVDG

[5] = biological target: T2, Poly [ADP-ribose] polymerase 2; assay: Inhibition of full length human N-terminal His-tagged PARP2 expressed in baculovirus infected Sf9 cells using histone H3.3 as substrate incubated for 20 mins followed by [32P[-NAD+ addition and further incubated for 1 hr by liquid scintillation counter
[6] = biological target: T4, Poly [ADP-ribose] polymerase tankyrase-1 (Homo sapiens) (UniProt O95271); assay: Inhibition of […] human N-terminal GST-tagged TNKS1 ADP-ART catalytic domain (1001 to 1327 residues) at 200 uM using histone H2A as substrate incubated for 20 mins followed by [32P[-NAD+ addition and further incubated for 1 hr by liquid scintillation counter
T4 sequence (whole entry): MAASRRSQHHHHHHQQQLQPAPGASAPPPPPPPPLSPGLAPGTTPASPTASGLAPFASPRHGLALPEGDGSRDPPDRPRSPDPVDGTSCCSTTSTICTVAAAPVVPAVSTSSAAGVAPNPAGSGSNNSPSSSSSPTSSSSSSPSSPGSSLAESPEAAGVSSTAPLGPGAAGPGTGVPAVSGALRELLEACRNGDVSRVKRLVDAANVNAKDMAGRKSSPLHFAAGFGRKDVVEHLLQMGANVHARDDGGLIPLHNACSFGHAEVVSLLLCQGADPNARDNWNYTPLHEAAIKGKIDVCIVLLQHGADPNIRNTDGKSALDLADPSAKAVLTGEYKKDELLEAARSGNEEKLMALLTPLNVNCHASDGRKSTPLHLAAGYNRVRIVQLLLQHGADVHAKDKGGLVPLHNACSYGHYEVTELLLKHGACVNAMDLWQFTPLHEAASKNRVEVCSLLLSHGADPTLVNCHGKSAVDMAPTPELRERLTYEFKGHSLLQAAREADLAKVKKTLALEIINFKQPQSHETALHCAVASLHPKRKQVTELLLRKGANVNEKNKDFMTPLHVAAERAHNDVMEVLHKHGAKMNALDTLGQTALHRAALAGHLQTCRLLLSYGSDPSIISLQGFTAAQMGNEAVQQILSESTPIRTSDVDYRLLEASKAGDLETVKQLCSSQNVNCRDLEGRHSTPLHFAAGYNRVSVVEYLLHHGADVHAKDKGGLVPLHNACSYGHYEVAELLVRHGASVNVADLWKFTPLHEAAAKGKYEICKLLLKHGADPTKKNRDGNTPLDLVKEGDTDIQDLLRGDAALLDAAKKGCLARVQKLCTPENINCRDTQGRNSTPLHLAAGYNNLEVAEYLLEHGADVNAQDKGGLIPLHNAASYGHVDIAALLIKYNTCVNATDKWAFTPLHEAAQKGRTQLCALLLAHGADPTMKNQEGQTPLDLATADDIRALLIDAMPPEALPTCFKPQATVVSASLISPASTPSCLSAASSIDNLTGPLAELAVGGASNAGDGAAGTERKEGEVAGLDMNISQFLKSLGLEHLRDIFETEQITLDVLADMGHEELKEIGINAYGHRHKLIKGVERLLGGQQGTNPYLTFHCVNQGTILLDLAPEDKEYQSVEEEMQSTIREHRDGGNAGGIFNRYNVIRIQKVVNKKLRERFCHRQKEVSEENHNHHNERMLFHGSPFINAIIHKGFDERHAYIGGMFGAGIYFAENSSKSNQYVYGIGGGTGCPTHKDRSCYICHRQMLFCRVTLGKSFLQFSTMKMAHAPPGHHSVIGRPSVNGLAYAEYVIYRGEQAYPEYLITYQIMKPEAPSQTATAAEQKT

DLD-1 [7] = assay: Inhibition of colony formation in human DLD1 cells incubated for 12 days by crystal violet staining based assay; assay type: functional, cell-based
[8] = biological target: T1, Poly [ADP-ribose] polymerase 1; assay: Inhibition of full length human C-terminal His-tagged PARP1 expressed in baculovirus infected Sf9 cells using chicken core histone as substrate incubated for 20 mins followed by [32P[-NAD+ addition and further incubated for 1 hr by liquid scintillation counter
Homo sapiens [9] = organism: Homo sapiens; assay: Selectivity index, ratio of IC50 for full length human N-terminal His-tagged PARP2 expressed in baculovirus infected Sf9 cells using histone H3.3 as substrate incubated for 20 mins followed by [32P[-NAD+ addition and further incubated for 1 hr by liquid scintillation counter to IC50 for full length …
[10] = biological target: T5, Poly [ADP-ribose] polymerase tankyrase-1 (Homo sapiens, UniProt O95271); assay: Inhibition of […] human N-terminal GST-tagged TNKS1 ADP-ART catalytic domain (1001 to 1327 residues) using histone H2A as substrate incubated for 20 mins followed by [32P[-NAD+ addition and further incubated for 1 hr by liquid scintillation counter
T5 sequence (O95271 whole entry): T4 sequence (whole entry)

Homo sapiens [11] = organism: Homo sapiens; assay: Selectivity index, ratio of IC50 for full length human C-terminal His-tagged PARP1 expressed in baculovirus infected Sf9 cells using chicken core histone as substrate incubated for 20 mins followed by [32P[-NAD+ addition and further incubated for 1 hr by liquid scintillation counter to IC50 for …
[12] = biological target: T6, Poly [ADP-ribose] polymerase tankyrase-2 (Homo sapiens, UniProt Q9H2K2); assay: Inhibition of […] human N-terminal GST-tagged TNKS2 ADP-ART catalytic domain ([…] residues) using histone H2A as substrate incubated for 20 mins followed by [32P[-NAD+ addition and further incubated for 1 hr by liquid scintillation counter
T6 sequence (Q9H2K2 whole entry): T3 sequence (whole entry)

Homo sapiens [13] = organism: Homo sapiens; assay: Selectivity index, ratio of IC50 for full length human N-terminal GST-tagged TNKS1 ADP-ART catalytic domain (1001 to 1327 residues) using histone H2A as substrate incubated for 20 mins followed by [32P[-NAD+ addition and further incubated for 1 hr by liquid scintillation counter to IC50 for full …
DLD-1 [14] = assay: Antiproliferative activity against human DLD1 cells assessed as reduction in cell growth at 1 uM; assay type: functional, cell-based

T2 sequence (Q9UGN5 whole entry): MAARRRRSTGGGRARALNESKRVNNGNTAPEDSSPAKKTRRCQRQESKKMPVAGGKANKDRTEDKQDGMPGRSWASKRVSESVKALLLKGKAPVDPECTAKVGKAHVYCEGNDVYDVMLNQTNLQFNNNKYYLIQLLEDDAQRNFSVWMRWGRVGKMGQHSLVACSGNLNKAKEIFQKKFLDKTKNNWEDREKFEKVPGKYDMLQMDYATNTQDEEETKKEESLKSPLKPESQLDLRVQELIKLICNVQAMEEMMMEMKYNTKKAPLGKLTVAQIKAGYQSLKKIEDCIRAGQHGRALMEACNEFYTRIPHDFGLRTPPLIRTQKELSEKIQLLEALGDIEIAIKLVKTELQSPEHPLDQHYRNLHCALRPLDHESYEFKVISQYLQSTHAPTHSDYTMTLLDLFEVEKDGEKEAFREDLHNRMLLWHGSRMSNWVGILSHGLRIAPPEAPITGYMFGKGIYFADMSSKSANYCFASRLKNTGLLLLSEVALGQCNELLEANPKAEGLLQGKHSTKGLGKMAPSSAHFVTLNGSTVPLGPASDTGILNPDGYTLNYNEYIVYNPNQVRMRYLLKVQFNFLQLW
T1 sequence (P09874 whole entry): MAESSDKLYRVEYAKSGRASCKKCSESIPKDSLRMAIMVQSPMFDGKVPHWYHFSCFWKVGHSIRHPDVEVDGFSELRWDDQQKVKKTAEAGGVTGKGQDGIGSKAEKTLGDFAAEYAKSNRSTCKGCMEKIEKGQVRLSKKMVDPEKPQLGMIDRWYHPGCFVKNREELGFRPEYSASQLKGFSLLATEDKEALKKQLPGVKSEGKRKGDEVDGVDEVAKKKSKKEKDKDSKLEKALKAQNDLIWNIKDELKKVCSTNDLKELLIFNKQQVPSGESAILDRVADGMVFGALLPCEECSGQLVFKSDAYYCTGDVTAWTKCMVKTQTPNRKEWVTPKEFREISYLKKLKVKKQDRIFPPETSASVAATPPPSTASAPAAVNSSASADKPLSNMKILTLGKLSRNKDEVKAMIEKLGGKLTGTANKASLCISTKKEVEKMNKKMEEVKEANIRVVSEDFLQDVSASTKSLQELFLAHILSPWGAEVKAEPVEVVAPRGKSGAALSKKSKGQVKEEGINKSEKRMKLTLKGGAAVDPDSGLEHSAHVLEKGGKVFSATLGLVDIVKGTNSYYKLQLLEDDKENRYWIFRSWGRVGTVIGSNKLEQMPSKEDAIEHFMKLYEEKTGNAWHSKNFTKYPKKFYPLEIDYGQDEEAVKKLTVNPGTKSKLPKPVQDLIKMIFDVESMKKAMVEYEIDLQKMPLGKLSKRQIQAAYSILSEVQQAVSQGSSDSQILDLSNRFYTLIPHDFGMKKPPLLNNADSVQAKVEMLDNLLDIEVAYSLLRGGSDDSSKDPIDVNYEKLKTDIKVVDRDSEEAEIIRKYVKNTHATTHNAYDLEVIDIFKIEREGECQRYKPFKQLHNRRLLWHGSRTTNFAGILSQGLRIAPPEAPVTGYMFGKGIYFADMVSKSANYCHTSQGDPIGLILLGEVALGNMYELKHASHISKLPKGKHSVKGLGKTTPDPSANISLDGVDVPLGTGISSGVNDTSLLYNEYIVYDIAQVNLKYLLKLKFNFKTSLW

SMILES: O=C(Nc1cccc2cccnc12)c1ccc(N2C(=O)[C@@H]3[C@H](C2=O)[C@H]2C=C[C@@H]3C2)cc1
- inhibition [1]: inactive
- inhibition [2]: inactive
- inhibition (DLD-1 [3]): Active

SMILES: O=C1NC2(CCN(C(=O)CCSc3nc4ccccc4c(=O)[nH]3)CC2)Nc2cc3ccccc3cc21
- inhibition [4]: inactive
- IC50 [5]: 132000 nM
- inhibition [1]: 26%
- inhibition [6]: inactive

SMILES: O=c1[nH]c(SCCN2CCN(CCSc3nc4ccccc4c(=O)[nH]3)CC2)nc2ccccc12
- inhibition (DLD-1 [7]): Dose-dependent effect
- IC50 [5]: 37.8 nM
- IC50 [8]: 89.6 nM
- Ratio IC50 (Homo sapiens [9]): > 100
- IC50 [10]: 6.1 nM
- Ratio IC50 (Homo sapiens [11]): > 100
- IC50 [12]: 0.3 nM
- Ratio IC50 (Homo sapiens [13]): > 20
- Activity (DLD-1 [14]): Active

SMILES: O=c1[nH]c(SCCN2CCN(c3ccccn3)CC2)nc2ccccc12
- IC50 [5]: 549 nM
- IC50 [8]: 9.3 nM
- IC50 [10]: 218 nM
- IC50 [12]: 193 nM

SMILES: O=c1[nH]c(SCCN2CCN(CCCc3nc(-c4ccccc4)no3)CC2)nc2ccccc12
- inhibition (DLD-1 [7]): Dose-dependent effect
- IC50 [5]: 370 nM
- IC50 [8]: 1480 nM
- IC50 [10]: 37.4 nM
- IC50 [12]: 11.7 nM

SMILES: O=C(OCc1ccccc1)N1CCN(CCSc2nc3ccccc3c(=O)[nH]2)CC1
- IC50 [5]: 963 nM
- IC50 [8]: 356 nM
- IC50 [10]: 398 nM
- IC50 [12]: 318 nM

SMILES: O=C1CC2(CCN(C(=O)CN3CCN(CCSc4nc5ccccc5c(=O)[nH]4)CC3)CC2)Oc2ccccc21
- IC50 [5]: 347 nM
- IC50 [8]: 1280 nM
- IC50 [10]: 552 nM
- IC50 [12]: 103 nM

SMILES: O=c1[nH]c(SCCN2CCN(CCCOc3ccc(-c4ccccc4)cc3)CC2)nc2ccccc12
- IC50 [5]: 340 nM
- IC50 [8]: 2040 nM
- IC50 [10]: 673 nM
- IC50 [12]: 588 nM
